This passage reports inhibition results from PMC11397727, “Fast Screening of Tyrosinase Inhibitors in Coreopsis tinctoria Nutt. by Ligand Fishing Based on Paper-Immobilized Tyrosinase” (Molecules, 2024).

Molecules are shown by their SMILES.

The assay addresses T1, Mushroom Tyrosinase (TYR) (Agaricus bisporus, UniProt C7FF04).
T1 construct: gene PPO3
In words: colorimetric L-Dopa oxidation assay, single-concentration inhibition at […]; also retrieved by ligand fishing on paper-immobilized tyrosinase. In kind it is biochemical.

T1 sequence (C7FF04 2-392): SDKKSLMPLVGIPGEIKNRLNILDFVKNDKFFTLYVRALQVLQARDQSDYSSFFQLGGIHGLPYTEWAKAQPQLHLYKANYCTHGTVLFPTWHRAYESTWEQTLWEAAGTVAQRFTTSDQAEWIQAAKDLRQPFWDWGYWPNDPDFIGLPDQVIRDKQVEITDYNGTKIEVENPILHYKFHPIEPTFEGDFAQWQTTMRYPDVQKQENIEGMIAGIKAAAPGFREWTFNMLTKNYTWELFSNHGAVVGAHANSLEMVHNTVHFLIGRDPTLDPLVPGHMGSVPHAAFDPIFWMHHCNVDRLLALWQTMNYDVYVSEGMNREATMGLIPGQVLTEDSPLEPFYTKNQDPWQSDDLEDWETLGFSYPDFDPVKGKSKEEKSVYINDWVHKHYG

The compound `O=C(/C=C/c1ccc(O)c(O)c1)c1ccc(O[C@@H]2O[C@H](CO)[C@@H](O)[C@H](O)[C@H]2O)c(O)c1O` [compound 2, marein] showed an inhibition at 25 µM of 29.4%.
